According to publication PMC6804997 (PLoS ONE, 2019):

Legend:
Assay in all cases: HDAC enzyme inhibition assay (Ac-peptide-AMC substrate)
Type in all cases: biochemical
HDAC5 = HDAC5 (Homo sapiens, UniProt Q9UQL6); conditions: HDAC5 vs HDAC6
Experimental: (§1) HDACs inhibition assay of F7 was performed utilizing 4-amino-7-methylcoumarin (AMC) labeled Ac-peptide (Ac-peptide-AMC) substrates, a service provided by Chempartner Company (Shanghai, China).
(§2) This assay was performed was performed utilizing 4-amino-7-methylcoumarin (AMC) labeled Ac-peptide (Ac-peptide-AMC) substrates, a service provided by Chempartner Company (Shanghai, China).

HDAC11 = molecular target: T1, HDAC11 (Homo sapiens, UniProt Q96DB2); conditions: HDAC11 vs HDAC6
T1 sequence (Q96DB2 1-347): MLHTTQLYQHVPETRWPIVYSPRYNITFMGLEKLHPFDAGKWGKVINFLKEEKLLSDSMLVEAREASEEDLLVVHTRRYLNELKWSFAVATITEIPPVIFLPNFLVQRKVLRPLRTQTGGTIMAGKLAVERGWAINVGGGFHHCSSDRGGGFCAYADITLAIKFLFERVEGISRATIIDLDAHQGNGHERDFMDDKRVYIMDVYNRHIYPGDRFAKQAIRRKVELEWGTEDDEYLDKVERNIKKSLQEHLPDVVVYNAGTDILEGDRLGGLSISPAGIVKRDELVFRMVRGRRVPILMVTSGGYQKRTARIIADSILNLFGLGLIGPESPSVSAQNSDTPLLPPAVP
Experimental: as §1, §2

HDAC4 = HDAC4 (Homo sapiens, UniProt P56524); conditions: HDAC4 vs HDAC6
Chain of HDAC4 (P56524 whole entry, species assumed): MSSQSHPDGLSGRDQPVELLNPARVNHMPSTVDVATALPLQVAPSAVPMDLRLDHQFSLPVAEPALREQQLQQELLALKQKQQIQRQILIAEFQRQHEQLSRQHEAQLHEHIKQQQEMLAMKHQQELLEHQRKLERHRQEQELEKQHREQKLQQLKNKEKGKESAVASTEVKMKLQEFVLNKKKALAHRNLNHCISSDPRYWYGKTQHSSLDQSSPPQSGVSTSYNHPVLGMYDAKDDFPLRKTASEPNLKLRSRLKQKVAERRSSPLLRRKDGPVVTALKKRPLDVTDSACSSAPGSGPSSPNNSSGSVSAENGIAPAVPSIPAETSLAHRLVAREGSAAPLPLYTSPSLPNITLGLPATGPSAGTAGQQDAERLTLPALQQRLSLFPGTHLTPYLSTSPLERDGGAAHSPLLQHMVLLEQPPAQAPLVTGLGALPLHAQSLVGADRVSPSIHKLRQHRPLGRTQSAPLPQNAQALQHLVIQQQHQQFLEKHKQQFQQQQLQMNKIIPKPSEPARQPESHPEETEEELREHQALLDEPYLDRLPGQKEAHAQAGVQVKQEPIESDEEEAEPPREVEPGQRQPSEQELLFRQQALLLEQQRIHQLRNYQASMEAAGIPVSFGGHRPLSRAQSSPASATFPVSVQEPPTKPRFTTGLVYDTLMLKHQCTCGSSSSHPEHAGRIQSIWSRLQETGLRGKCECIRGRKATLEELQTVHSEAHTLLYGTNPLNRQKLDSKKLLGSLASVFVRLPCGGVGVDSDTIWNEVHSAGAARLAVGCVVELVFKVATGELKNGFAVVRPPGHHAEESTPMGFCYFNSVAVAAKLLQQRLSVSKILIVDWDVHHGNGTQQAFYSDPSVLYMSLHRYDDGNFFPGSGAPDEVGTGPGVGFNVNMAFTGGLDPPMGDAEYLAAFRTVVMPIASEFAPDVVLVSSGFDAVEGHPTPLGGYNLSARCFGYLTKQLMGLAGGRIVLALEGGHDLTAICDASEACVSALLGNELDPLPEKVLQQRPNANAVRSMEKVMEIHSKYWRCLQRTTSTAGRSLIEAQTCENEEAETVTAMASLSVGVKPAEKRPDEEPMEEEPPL
Experimental: as §1, §2

HDAC9 = HDAC9 (Homo sapiens, UniProt Q9UKV0); conditions: HDAC9 vs HDAC6
Chain of HDAC9 (Q9UKV0 whole entry, species assumed): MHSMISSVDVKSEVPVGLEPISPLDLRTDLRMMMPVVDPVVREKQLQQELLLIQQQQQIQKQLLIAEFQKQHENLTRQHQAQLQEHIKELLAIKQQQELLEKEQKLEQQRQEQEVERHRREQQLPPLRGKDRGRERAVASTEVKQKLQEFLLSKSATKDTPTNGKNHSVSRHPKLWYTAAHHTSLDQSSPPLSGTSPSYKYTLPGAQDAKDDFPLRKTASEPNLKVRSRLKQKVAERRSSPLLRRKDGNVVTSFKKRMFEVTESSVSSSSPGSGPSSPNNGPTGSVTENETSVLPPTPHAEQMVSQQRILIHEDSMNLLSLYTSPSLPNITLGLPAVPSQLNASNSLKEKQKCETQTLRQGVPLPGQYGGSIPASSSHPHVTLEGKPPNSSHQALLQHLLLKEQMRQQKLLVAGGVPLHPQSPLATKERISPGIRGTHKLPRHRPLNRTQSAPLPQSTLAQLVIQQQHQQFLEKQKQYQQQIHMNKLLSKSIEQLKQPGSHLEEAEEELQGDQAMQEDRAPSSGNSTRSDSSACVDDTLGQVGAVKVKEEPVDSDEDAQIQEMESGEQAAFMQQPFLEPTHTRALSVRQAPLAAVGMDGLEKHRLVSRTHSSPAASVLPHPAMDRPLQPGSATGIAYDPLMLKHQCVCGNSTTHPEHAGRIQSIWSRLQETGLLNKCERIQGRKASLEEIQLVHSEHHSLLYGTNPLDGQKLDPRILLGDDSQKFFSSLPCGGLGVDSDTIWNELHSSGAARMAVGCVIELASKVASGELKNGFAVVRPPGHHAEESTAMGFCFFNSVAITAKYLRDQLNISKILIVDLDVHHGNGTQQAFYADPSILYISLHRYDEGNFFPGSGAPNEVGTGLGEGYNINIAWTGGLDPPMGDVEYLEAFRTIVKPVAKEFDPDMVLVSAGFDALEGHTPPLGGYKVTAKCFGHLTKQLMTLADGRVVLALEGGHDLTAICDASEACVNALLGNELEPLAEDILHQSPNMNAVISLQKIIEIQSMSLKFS
Experimental: as §1, §2

HDAC7 = molecular target: T2, HDAC7 (Homo sapiens, UniProt Q8WUI4); conditions: HDAC7 vs HDAC6
T2 sequence (Q8WUI4 1-952): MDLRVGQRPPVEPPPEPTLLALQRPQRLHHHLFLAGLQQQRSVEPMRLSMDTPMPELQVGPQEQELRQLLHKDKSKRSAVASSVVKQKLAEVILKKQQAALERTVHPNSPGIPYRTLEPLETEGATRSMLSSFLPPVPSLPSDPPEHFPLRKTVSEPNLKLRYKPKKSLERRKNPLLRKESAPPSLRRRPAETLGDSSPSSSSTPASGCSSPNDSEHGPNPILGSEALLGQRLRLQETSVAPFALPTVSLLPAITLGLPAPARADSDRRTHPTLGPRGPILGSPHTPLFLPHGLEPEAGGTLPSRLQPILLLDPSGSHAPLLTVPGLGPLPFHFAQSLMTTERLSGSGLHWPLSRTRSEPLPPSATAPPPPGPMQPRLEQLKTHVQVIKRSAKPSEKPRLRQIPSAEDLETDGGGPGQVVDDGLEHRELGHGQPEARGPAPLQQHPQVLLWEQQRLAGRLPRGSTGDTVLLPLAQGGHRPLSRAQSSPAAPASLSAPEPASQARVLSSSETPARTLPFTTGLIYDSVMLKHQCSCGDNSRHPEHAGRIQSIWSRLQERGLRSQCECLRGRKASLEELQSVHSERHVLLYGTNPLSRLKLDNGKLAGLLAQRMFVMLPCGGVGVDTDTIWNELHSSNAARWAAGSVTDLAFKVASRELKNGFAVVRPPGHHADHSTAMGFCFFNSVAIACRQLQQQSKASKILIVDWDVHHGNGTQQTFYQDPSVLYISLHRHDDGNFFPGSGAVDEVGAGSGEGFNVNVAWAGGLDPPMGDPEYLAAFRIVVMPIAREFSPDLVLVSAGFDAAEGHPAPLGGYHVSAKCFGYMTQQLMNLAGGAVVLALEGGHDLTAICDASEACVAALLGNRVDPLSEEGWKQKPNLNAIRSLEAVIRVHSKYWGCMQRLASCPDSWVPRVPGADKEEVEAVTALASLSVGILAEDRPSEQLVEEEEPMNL
Experimental: as §1, §2

Chain of HDAC5 (Q9UQL6 whole entry, species assumed): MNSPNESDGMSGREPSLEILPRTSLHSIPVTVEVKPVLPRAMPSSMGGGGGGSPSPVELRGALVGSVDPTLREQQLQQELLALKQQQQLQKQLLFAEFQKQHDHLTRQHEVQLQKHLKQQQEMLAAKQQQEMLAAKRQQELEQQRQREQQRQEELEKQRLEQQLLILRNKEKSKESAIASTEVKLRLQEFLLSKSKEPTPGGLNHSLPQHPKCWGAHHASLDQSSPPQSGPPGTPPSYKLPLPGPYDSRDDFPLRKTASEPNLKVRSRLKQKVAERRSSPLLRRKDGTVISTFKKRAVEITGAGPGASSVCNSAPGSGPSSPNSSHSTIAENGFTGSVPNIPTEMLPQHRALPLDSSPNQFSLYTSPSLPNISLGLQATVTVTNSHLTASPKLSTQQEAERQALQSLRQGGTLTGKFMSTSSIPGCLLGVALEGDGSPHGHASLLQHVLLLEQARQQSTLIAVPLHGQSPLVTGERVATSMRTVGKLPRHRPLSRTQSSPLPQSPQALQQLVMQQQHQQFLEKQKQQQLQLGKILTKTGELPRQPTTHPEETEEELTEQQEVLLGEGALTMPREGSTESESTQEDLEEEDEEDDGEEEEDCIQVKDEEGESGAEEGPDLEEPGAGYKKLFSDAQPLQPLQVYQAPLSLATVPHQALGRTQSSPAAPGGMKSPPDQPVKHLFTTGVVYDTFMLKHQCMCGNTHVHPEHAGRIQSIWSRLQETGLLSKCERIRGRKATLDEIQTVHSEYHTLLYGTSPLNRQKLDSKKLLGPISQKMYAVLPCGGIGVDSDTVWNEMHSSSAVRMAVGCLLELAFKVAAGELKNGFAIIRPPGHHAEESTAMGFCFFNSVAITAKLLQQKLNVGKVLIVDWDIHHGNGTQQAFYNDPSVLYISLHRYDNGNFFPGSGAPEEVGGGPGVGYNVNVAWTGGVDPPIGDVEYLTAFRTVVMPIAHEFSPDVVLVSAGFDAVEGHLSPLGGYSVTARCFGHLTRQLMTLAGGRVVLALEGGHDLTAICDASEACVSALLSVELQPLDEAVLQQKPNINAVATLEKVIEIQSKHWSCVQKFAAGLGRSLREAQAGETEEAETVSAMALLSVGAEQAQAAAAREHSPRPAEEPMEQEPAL

COc1ccc(N(C)c2nc(C)nc3ccccc23)cc1OCCCC(=O)NO [23BB, N-hydroxy-4-(2-methoxy-5-(methyl(2-methylquinazolin-4-yl)-amino)phenoxy)butanamide]
> 588.235: Selective Ratio HDAC5 (HDAC5) | Selective Ratio HDAC11 (HDAC11) | Selective Ratio HDAC4 (HDAC4) | Selective Ratio HDAC9 (HDAC9) | Selective Ratio HDAC7 (HDAC7)
